Data: ChEMBL document CHEMBL1201862, “PubChem BioAssay data set” (2004)
Active and inactive are the calls of the source.

Assays:
Leucine aminopeptidase = target: T1, Leucine aminopeptidase (Plasmodium falciparum 3D7, UniProt Q8IL11); assay: P. falciparum M17LAP inhibitors, primary screen, biochemical, fluorogenic H-Leu-NHMec substrate, 1536-well (AID 1619); format: functional
T1 sequence (Q8IL11 whole entry): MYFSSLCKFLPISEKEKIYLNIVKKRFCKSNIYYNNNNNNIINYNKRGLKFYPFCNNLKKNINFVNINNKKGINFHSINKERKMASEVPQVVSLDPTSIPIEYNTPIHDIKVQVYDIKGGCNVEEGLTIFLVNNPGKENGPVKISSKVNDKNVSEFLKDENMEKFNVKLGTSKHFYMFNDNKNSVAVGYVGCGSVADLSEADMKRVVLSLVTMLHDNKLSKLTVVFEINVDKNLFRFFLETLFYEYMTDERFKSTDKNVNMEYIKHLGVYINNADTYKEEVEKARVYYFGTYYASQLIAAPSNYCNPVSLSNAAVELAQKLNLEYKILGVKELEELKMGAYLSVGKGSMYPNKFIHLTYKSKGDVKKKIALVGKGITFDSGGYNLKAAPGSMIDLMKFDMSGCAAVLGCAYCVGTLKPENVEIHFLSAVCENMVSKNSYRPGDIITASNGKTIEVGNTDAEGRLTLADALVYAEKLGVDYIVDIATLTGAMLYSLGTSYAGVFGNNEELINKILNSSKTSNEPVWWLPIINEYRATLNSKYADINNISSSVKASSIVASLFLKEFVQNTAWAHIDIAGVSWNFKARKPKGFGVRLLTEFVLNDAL

Cytochrome P450 2C19 = Cytochrome P450 2C19 (Homo sapiens, UniProt P33261); assay: Cytochrome panel assay with activity outcomes. Panel member name: p450-cyp2c19 Compounds with AC50 equal or less than 10 uM are considered active; format: functional; conditions: read-out: AC50
Cytochrome P450 2C19, sequence (P33261 whole entry): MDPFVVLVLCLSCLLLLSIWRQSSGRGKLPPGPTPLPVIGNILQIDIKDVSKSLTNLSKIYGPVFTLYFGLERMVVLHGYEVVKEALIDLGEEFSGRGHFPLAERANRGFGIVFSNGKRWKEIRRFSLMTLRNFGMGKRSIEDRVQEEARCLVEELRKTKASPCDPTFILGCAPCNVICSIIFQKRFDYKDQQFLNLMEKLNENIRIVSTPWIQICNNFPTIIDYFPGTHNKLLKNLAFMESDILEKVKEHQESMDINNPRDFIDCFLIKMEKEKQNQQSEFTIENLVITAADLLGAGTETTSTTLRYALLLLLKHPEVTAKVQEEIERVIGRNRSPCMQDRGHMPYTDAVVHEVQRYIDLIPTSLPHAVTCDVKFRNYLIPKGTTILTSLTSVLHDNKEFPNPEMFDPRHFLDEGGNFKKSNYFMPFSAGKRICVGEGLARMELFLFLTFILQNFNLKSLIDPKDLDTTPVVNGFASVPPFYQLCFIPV

[1] = target: T2, Neuropeptide Y receptor type 2 (Homo sapiens, UniProt P49146); assay: NPY-Y2 antagonist potency, selectivity check, dose response, counter-screen for NPY-Y1 antagonist project, cell-based (AID 1278); format: functional
T2 sequence (P49146 whole entry): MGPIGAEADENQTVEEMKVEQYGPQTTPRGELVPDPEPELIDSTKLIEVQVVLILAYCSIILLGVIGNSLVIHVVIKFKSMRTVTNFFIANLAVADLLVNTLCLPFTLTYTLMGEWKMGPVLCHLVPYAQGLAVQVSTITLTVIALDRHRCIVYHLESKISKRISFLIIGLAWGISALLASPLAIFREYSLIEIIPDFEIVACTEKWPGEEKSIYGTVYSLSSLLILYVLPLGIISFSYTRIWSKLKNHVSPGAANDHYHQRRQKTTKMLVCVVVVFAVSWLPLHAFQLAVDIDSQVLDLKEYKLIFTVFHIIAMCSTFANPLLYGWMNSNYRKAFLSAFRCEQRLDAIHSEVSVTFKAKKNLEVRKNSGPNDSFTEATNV

[2] = target: T3, Neuropeptide Y receptor type 1 (Homo sapiens, UniProt P25929); assay: NPY-Y1 receptor antagonist potency, dose response, cell-based (AID 1277); format: functional
T3 sequence (P25929 whole entry): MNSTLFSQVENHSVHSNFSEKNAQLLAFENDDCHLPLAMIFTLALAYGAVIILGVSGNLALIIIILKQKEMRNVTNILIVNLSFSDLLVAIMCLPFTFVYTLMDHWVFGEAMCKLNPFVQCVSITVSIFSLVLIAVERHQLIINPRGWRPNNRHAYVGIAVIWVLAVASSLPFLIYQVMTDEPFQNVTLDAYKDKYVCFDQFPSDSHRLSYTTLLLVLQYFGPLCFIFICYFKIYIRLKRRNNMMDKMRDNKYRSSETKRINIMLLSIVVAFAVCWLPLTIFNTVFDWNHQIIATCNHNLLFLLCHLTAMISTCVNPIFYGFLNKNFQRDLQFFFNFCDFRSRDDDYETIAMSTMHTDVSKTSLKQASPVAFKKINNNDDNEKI

[3] = target: Luciferin 4-monooxygenase (Photinus pyralis, UniProt P08659); assay: Counter Screen for Luciferase-based Assay Positives. [Related pubchem assays: 620, 618, 411 ]
Luciferin 4-monooxygenase, sequence (P08659 whole entry): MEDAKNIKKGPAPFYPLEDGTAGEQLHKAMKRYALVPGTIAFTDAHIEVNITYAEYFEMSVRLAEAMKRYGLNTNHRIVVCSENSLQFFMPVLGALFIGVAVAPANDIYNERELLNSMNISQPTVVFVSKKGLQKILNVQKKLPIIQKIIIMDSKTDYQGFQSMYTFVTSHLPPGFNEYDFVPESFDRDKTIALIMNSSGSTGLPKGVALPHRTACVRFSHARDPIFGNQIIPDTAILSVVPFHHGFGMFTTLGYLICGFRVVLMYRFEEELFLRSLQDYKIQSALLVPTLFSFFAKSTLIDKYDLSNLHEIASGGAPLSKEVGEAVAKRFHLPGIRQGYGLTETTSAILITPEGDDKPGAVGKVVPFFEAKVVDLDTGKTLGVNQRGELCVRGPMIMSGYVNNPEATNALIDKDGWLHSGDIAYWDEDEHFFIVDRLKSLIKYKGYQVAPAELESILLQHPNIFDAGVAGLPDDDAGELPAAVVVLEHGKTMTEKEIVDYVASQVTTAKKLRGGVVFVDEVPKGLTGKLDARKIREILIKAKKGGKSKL

HT-1080 = assay: cytotoxicity in HT1080 fibrosarcoma cells, cell-based, fluorescence readout (AID 620); format: functional; conditions: Homo sapiens
[4] = cytotoxicity in HPDE-C7 cells, cell-based, fluorescence, HTS (AID 430); format: functional; conditions: Homo sapiens
[5] = cytotoxicity in KRAS-transformed pancreatic duct cells, primary screen, cell-based, fluorescence, HTS (AID 431); format: functional; conditions: Homo sapiens;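 note: cell line used: HPDE-C7K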
Cytochrome P450 1A2 = target: T4, Cytochrome P450 1A2 (Homo sapiens, UniProt P05177);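 note: PubChem cytochrome P450 panel assay, CYP1A2 panel member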
T4 sequence (P05177 whole entry): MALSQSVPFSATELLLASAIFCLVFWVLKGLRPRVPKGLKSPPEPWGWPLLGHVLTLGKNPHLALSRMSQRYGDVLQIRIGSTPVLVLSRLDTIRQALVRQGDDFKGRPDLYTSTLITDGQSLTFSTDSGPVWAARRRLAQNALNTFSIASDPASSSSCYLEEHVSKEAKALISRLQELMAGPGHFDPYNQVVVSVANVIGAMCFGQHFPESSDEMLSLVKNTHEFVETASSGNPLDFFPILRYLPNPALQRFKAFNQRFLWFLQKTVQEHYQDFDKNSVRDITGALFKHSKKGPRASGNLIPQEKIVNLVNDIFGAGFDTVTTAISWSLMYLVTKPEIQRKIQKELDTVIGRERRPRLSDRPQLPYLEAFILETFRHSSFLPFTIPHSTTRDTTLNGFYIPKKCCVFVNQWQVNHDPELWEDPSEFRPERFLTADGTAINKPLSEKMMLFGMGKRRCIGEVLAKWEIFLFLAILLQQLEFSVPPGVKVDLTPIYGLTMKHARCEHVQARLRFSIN

[6] = tested on: Streptococcus sp. 'group A'; assay: growth inhibition of control SK(-) GAS strain, dose response, counter-screen for streptokinase expression inhibitor project, luminescence, kanamycin, BacTiterGlo, confirmation (AID 1900); format: functional, organism-based
Streptokinase A = target: T5, Streptokinase A (Streptococcus pyogenes serotype M1, UniProt P10520); assay: S. pyogenes streptokinase expression inhibitors, potency, dose response, plasminogen activation absorbance, OD405 (AID 1914); format: functional, Streptococcus pyogenes M1 GAS;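 note: secreted streptokinase activity via plasminogen activation per viability signal from cell pellet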
T5 sequence (P10520 whole entry): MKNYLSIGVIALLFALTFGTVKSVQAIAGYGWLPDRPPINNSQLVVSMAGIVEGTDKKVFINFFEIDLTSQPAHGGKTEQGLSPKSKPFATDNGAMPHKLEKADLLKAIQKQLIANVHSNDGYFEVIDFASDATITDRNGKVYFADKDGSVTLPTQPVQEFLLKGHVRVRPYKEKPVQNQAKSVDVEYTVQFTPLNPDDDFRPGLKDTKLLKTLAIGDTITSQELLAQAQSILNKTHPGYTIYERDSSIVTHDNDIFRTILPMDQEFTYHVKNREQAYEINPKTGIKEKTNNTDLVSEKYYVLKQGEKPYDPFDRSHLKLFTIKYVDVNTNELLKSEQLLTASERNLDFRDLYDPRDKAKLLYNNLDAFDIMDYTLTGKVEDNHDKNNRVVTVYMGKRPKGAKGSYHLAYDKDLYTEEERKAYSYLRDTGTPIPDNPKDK

Streptococcus = assay: Group A Streptococcus viability loss, dose response, counter-screen for streptokinase expression inhibitor project, luminescence, BacTiterGlo (AID 1915); format: functional, organism-based;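 note: potency for reduction of bacterial viability or growth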
[7] = HEp-2 cell cytotoxicity, dose response, cytotoxicity control for RSV inhibitor project, HTS (AID 2410); format: functional; conditions: human respiratory syncytial virus

Which IC50 (Leucine aminopeptidase) does the source give for COC(=O)c1ccc(NC(=O)C2CCCCC2C(=O)O)cc1 (centres undefined) here?
The IC50 was 13.5 µM (active).

What about the AC50 (Cytochrome P450 2C19) of the same compound?
Its AC50 is 0.0398 µM (inconclusive).

With Cc1cc2cc(C)c(NCCNC(=O)c3cccc(F)c3)nc2cc1C as the compound, how does the IC50 [1] read?
The IC50 was 4.44 µM (active).

And the IC50 [2]?
Its IC50 is 3.39 µM (active).

With COC(=O)c1ccc(-c2nc(-c3cccs3)no2)cc1 as the compound, how does the EC50 [3] read?
Its EC50 is 0.76 µM (active).

What about the EC50 (HT-1080) of the same compound?
The EC50 was > 50 µM (not active).

Which EC50 [4] does the source give for O=C1CC(c2ccc3c(c2)OCO3)c2cc3c(cc2N1)OCCO3 (centres undefined) here?
The EC50 was > 20 µM (not active).

What about the EC50 [5] of the same compound?
The EC50 was > 20 µM (not active).

For O=C(c1cc(-c2cccc(O)c2)on1)N1CCCCC1, which EC50 [3] is on record?
The EC50 was 0.64 µM (active).

And the EC50 (HT-1080)?
The EC50 was > 50 µM (not active).

Which IC50 [1] does the source give for COc1ccc([N+](=O)[O-])cc1N(CC(O)CN(CC(C)C)CC(C)C)S(=O)(=O)c1ccccc1 (centres undefined) here?
The IC50 was > 35 µM (not active).

And the IC50 [2]?
The IC50 was > 35 µM (not active).

What about the AC50 (Cytochrome P450 1A2) of the same compound?
Its AC50 is 11.2 µM (inconclusive).

Which IC50 (Leucine aminopeptidase) does the source give for Cc1sc(NC(=O)C2C3C=CC(C3)C2C(=O)O)c(C(N)=O)c1-c1ccc(C(C)C)cc1 (centres undefined) here?
The IC50 was 4.99 µM (active).

What about the EC50 [6] of the same compound?
Its EC50 is 32.1 µM (active).

What about the EC50 (Streptokinase A) of the same compound?
Its EC50 is 32.2 µM (active).

And the EC50 (Streptococcus)?
The EC50 was > 150 µM (not active).

Which CC50 [7] does the source give for Cc1ccc(S(=O)(=O)N2CCCC(c3nc(O)c4nnn(Cc5ccc6c(c5)OCCO6)c4n3)C2)cc1 (centres undefined) here?
The CC50 was 14.4 µM (active).

What about the IC50 (cells) of the same compound?
Its IC50 is 10.2 µM (active).
